Data published in publication PMC8617507 (Proceedings of the National Academy of Sciences of the …, 2021).
“And” between values parts separate entries of the source, which are not always exact repeats. Equal values may be shown once. Read-outs that look alike come from different tables or passages of the source.

What was measured:
S. pneumoniae = test: MIC, broth microdilution; format: cell-based, Streptococcus pneumoniae; conditions: for MIC: Streptococcus pneumoniae, S. pneumoniae T4 in supplemented C+Y medium, most abundant MIC, Table 2; for reduction in MIC in comparison to THCz-1: S. pneumoniae T4, vs. original screening hit THCz-1
[1] = test system: B. subtilis PypuA-lacZ (cell wall) bioreporter; test: β-Galactosidase reporter assay, cell wall reporter; format: cell-based, Bacillus subtilis; conditions: 10 µg THCz-1, 20 µg THCz-40, 80 µg THCz-39, 100 µg THCz-5 spotted on agar
[2] = test system: B. subtilis PliaI-lux LiaRS bioreporter; test: Luciferase reporter assay; format: cell-based, Bacillus subtilis; conditions: 2 µg/mL THCz-1, 128 µg/mL THCz-5, 8 µg/mL THCz-39, 4 µg/mL THCz-40
B. subtilis GFP-MinD = test: MinD delocalization studies; format: cell-based, Bacillus subtilis; conditions: within 5 min
[3] = test system: Lung epithelial A549 cells
[4] = test system: Lung epithelial A549 cells; test: cells; conditions: Homo sapiens
B. subtilis 168 = test: Bacterial cell wall integrity assay; format: cell-based, Bacillus subtilis; conditions: 30 min exposure; phase-contrast microscopy
S. pneumoniae T4 = test: Lysis and killing kinetics; conditions: THCz-1 5.1 µg/mL, penicillin G 0.06 μg/mL, tetracycline 2 μg/mL
PBP2 = test: PBP2-catalyzed transglycosylation of lipid II in vitro; format: biochemical, S. aureus; conditions: compared to THCz-1 and THCz-40

Compound | MIC (S. pneumoniae) | induction of the cell wall responsive reporter strain [1] | IC50 [4] | cell shape deformations / cell membrane blebbing (B. subtilis 168) | further results
c1ccc(CCOC2CCCc3c2[nH]c2ccccc32)cc1 (centres unmarked) [THCz-5] | > 100 µM and > 29.1 µg/mL | but not THCz-5 | 141 µM and 41 µg/mL |  | induction of PliaI-lux bioluminescence (LiaRS stress response) [2]: except for the inactive analog THCz-5; delocalization of GFP-MinD (membrane depolarization) (B. subtilis GFP-MinD): MinD delocalization was also observed; increase of IC50 (cytotoxicity) ([3]; THCz-5 vs. THCz-19): about sixfold
c1ccc(CCNC2CCCc3c2[nH]c2ccccc32)cc1 (centres unmarked) [THCz-19] | 6.3 µM and 1.9 µg/mL |  | 22.2 µM and 6.8 µg/mL |  | 
c1ccc(CCNC2CCCc3c2oc2ccc(-c4ccccc4)cc32)cc1 (centres unmarked) [THCz-6] | 50 µM and 18.4 µg/mL |  | 134 µM and 49.3 µg/mL |  | increase of IC50 (cytotoxicity) ([3]; THCz-6 vs. THCz-2): about sevenfold
nisin (ITSISLCTPGCKTGALMGCNMKTATCHCSIHVSK; not fully specified; Lantibiotic nisin-A; UniProt P13068 24-57, looked up) |  |  |  | Membrane blebbing was also observed | 
bacitracin |  |  |  | Membrane blebbing was also observed | 
CN(C)[C@@H]1C(O)=C(C(N)=O)C(=O)[C@@]2(O)C(O)=C3C(=O)c4c(O)cccc4[C@@](C)(O)[C@H]3C[C@@H]12 [Tet, tetracycline] |  |  |  |  | lysis kinetics (S. pneumoniae T4): growth-inhibitory phenotype without any prominent lysis
Cc1ccc2[nH]c3c(c2c1)CCCC3NCCc1ccc(Br)cc1 (centres unmarked) [THCz-40] | 6.3 µM and 2.4 µg/mL | specifically induced | 28 µM and 10.7 µg/mL | induced characteristic cell shape deformations | reduction in MIC in comparison to THCz-1 (S. pneumoniae): twofold to fourfold
CN[C@H](CC(C)C)C(=O)N[C@H]1C(=O)N[C@@H](CC(N)=O)C(=O)N[C@H]2C(=O)N[C@H]3C(=O)N[C@H](C(=O)N[C@H](C(=O)O)c4cc(O)cc(O)c4-c4cc3ccc4O)[C@H](O)c3ccc(c(Cl)c3)Oc3cc2cc(c3O[C@@H]2O[C@H](CO)[C@@H](O)[C@H](O)[C@H]2O[C@H]2C[C@](C)(N)[C@H](O)[C@H](C)O2)Oc2ccc(cc2Cl)[C@H]1O [vancomycin] |  |  |  | Membrane blebbing was also observed | 
Cc1ccc2[nH]c3c(c2c1)CCCC3NCCc1ccc(O)cc1 (centres unmarked) [THCz-39] | 6.3 µM to 12.5 µM and 2 µg/mL to 4 µg/mL | specifically induced | 33.4 µM and 10.7 µg/mL | induced characteristic cell shape deformations | reduction in MIC in comparison to THCz-1 (S. pneumoniae): twofold to fourfold; higher concentration required for full inhibition of the PBP2-catalyzed reaction (PBP2): fourfold
